# ± gives the expanded uncertainty stated by the source.
# Assay: molar heat capacity at constant pressure
# Settings: 101.33 kPa, Liquid
Structure (SMILES),molar heat capacity at constant pressure (284.15 K) [J/K/mol],molar heat capacity at constant pressure (286.65 K) [J/K/mol],molar heat capacity at constant pressure (289.15 K) [J/K/mol],molar heat capacity at constant pressure (291.65 K) [J/K/mol],molar heat capacity at constant pressure (294.15 K) [J/K/mol],molar heat capacity at constant pressure (296.65 K) [J/K/mol],molar heat capacity at constant pressure (299.15 K) [J/K/mol],molar heat capacity at constant pressure (301.65 K) [J/K/mol],molar heat capacity at constant pressure (304.15 K) [J/K/mol],molar heat capacity at constant pressure (306.65 K) [J/K/mol],molar heat capacity at constant pressure (309.15 K) [J/K/mol],molar heat capacity at constant pressure (311.65 K) [J/K/mol],molar heat capacity at constant pressure (314.15 K) [J/K/mol],molar heat capacity at constant pressure (316.65 K) [J/K/mol],molar heat capacity at constant pressure (319.15 K) [J/K/mol],molar heat capacity at constant pressure (321.65 K) [J/K/mol],molar heat capacity at constant pressure (324.15 K) [J/K/mol],molar heat capacity at constant pressure (326.65 K) [J/K/mol],molar heat capacity at constant pressure (329.15 K) [J/K/mol],molar heat capacity at constant pressure (331.65 K) [J/K/mol],other results
CCCCl [1-chloropropane],128.63 ± 0.64,128.99 ± 0.64,129.53 ± 0.65,130.1 ± 0.65,130.47 ± 0.65,130.95 ± 0.65,131.33 ± 0.66,131.88 ± 0.66,132.37 ± 0.66,132.94 ± 0.66,133.4 ± 0.67,133.92 ± 0.67,134.38 ± 0.67,–,–,–,–,–,–,–,–
CCCCCCCCl [1-chloroheptane],240.95 ± 1.2,241.75 ± 1.2,242.67 ± 1.2,243.4 ± 1.2,244.29 ± 1.2,245.23 ± 1.2,246.05 ± 1.2,247.03 ± 1.2,247.61 ± 1.2,248.53 ± 1.2,249.54 ± 1.2,250.65 ± 1.2,251.6 ± 1.3,252.2 ± 1.3,253.36 ± 1.3,254.42 ± 1.3,254.76 ± 1.3,256.19 ± 1.3,257.57 ± 1.3,258.06 ± 1.3,molar heat capacity at constant pressure (334.15 K): 258.84 ± 1.3 J/K/mol; molar heat capacity at constant pressure (336.65 K): 259.88 ± 1.3 J/K/mol; molar heat capacity at constant pressure (339.15 K): 261.01 ± 1.3 J/K/mol; molar heat capacity at constant pressure (341.65 K): 261.55 ± 1.3 J/K/mol; molar heat capacity at constant pressure (344.15 K): 262.9 ± 1.3 J/K/mol; molar heat capacity at constant pressure (346.65 K): 263.26 ± 1.3 J/K/mol; molar heat capacity at constant pressure (349.15 K): 264.3 ± 1.3 J/K/mol; molar heat capacity at constant pressure (351.65 K): 266.04 ± 1.3 J/K/mol; molar heat capacity at constant pressure (353.15 K): 266.51 ± 1.3 J/K/mol
CCCCCCCBr [1-bromoheptane],244.73 ± 1.2,245.56 ± 1.2,246.44 ± 1.2,247.28 ± 1.2,248.12 ± 1.2,248.93 ± 1.2,249.7 ± 1.2,250.38 ± 1.2,251.56 ± 1.3,252.33 ± 1.3,253.19 ± 1.3,254.14 ± 1.3,255 ± 1.3,255.97 ± 1.3,256.84 ± 1.3,257.85 ± 1.3,258.76 ± 1.3,259.71 ± 1.3,260.68 ± 1.3,261.61 ± 1.3,molar heat capacity at constant pressure (334.15 K): 262.5 ± 1.3 J/K/mol; molar heat capacity at constant pressure (336.65 K): 262.97 ± 1.3 J/K/mol; molar heat capacity at constant pressure (339.15 K): 264.64 ± 1.3 J/K/mol; molar heat capacity at constant pressure (341.65 K): 265.49 ± 1.3 J/K/mol; molar heat capacity at constant pressure (344.15 K): 266.52 ± 1.3 J/K/mol; molar heat capacity at constant pressure (346.65 K): 267.46 ± 1.3 J/K/mol; molar heat capacity at constant pressure (349.15 K): 268.47 ± 1.3 J/K/mol; molar heat capacity at constant pressure (351.65 K): 269.51 ± 1.4 J/K/mol; molar heat capacity at constant pressure (353.15 K): 270.03 ± 1.4 J/K/mol
CCCCCCl [1-chloropentane],184.57 ± 0.92,185.29 ± 0.93,185.95 ± 0.93,186.52 ± 0.93,187.16 ± 0.94,187.66 ± 0.94,188.46 ± 0.94,189.19 ± 0.95,189.81 ± 0.95,190.32 ± 0.95,190.99 ± 0.95,191.89 ± 0.96,192.65 ± 0.96,193.22 ± 0.97,194.09 ± 0.97,194.69 ± 0.97,195.06 ± 0.98,196.14 ± 0.98,196.99 ± 0.98,197.64 ± 0.99,molar heat capacity at constant pressure (334.15 K): 198.46 ± 0.99 J/K/mol; molar heat capacity at constant pressure (336.65 K): 199.23 ± 1 J/K/mol; molar heat capacity at constant pressure (339.15 K): 199.92 ± 1 J/K/mol; molar heat capacity at constant pressure (341.65 K): 200.41 ± 1 J/K/mol; molar heat capacity at constant pressure (344.15 K): 201.19 ± 1 J/K/mol; molar heat capacity at constant pressure (346.65 K): 201.73 ± 1 J/K/mol; molar heat capacity at constant pressure (349.15 K): 202.54 ± 1 J/K/mol; molar heat capacity at constant pressure (351.65 K): 203.57 ± 1 J/K/mol; molar heat capacity at constant pressure (353.15 K): 204.24 ± 1 J/K/mol
CCCCCl [1-chlorobutane],156.22 ± 0.78,156.75 ± 0.78,157.28 ± 0.79,157.7 ± 0.79,158.27 ± 0.79,158.86 ± 0.79,159.48 ± 0.8,160.05 ± 0.8,160.5 ± 0.8,161.06 ± 0.81,161.59 ± 0.81,162.24 ± 0.81,162.92 ± 0.81,163.42 ± 0.82,164.11 ± 0.82,164.82 ± 0.82,165 ± 0.83,165.97 ± 0.83,166.72 ± 0.83,167.29 ± 0.84,molar heat capacity at constant pressure (334.15 K): 167.78 ± 0.84 J/K/mol; molar heat capacity at constant pressure (336.65 K): 168.53 ± 0.84 J/K/mol; molar heat capacity at constant pressure (339.15 K): 169.12 ± 0.85 J/K/mol; molar heat capacity at constant pressure (341.65 K): 170.01 ± 0.85 J/K/mol; molar heat capacity at constant pressure (344.15 K): 170.43 ± 0.85 J/K/mol; molar heat capacity at constant pressure (346.65 K): 170.49 ± 0.85 J/K/mol; molar heat capacity at constant pressure (349.15 K): 171.5 ± 0.86 J/K/mol; molar heat capacity at constant pressure (351.65 K): 173.02 ± 0.87 J/K/mol; molar heat capacity at constant pressure (353.15 K): 173.09 ± 0.87 J/K/mol
CCCCBr [1-bromobutane],159.45 ± 0.8,159.98 ± 0.8,160.53 ± 0.8,161.01 ± 0.81,161.52 ± 0.81,162.08 ± 0.81,162.6 ± 0.81,163.08 ± 0.82,163.72 ± 0.82,164.22 ± 0.82,164.78 ± 0.82,165.34 ± 0.83,165.94 ± 0.83,166.49 ± 0.83,167.09 ± 0.84,167.67 ± 0.84,168.29 ± 0.84,168.83 ± 0.84,169.45 ± 0.85,170.09 ± 0.85,molar heat capacity at constant pressure (334.15 K): 170.63 ± 0.85 J/K/mol; molar heat capacity at constant pressure (336.65 K): 171 ± 0.86 J/K/mol; molar heat capacity at constant pressure (339.15 K): 171.94 ± 0.86 J/K/mol; molar heat capacity at constant pressure (341.65 K): 172.57 ± 0.86 J/K/mol; molar heat capacity at constant pressure (344.15 K): 173.26 ± 0.87 J/K/mol; molar heat capacity at constant pressure (346.65 K): 173.89 ± 0.87 J/K/mol; molar heat capacity at constant pressure (349.15 K): 174.51 ± 0.87 J/K/mol; molar heat capacity at constant pressure (351.65 K): 175.19 ± 0.88 J/K/mol; molar heat capacity at constant pressure (353.15 K): 175.47 ± 0.88 J/K/mol
CCCCCCCCCl [1-chlorooctane],269.76 ± 1.4,270.79 ± 1.4,271.83 ± 1.4,272.66 ± 1.4,273.66 ± 1.4,274.53 ± 1.4,275.61 ± 1.4,276.52 ± 1.4,277.29 ± 1.4,278.37 ± 1.4,279.28 ± 1.4,280.5 ± 1.4,281.58 ± 1.4,282.47 ± 1.4,283.79 ± 1.4,284.92 ± 1.4,285.45 ± 1.4,286.81 ± 1.4,288.43 ± 1.4,289.95 ± 1.4,molar heat capacity at constant pressure (334.15 K): 290.13 ± 1.4 J/K/mol; molar heat capacity at constant pressure (336.65 K): 291.34 ± 1.5 J/K/mol; molar heat capacity at constant pressure (339.15 K): 291.91 ± 1.5 J/K/mol; molar heat capacity at constant pressure (341.65 K): 293.56 ± 1.5 J/K/mol; molar heat capacity at constant pressure (344.15 K): 294.16 ± 1.5 J/K/mol; molar heat capacity at constant pressure (346.65 K): 294.82 ± 1.5 J/K/mol; molar heat capacity at constant pressure (349.15 K): 295.79 ± 1.5 J/K/mol; molar heat capacity at constant pressure (351.65 K): 297.21 ± 1.5 J/K/mol; molar heat capacity at constant pressure (353.15 K): 298.14 ± 1.5 J/K/mol
CCCCCCCCCCBr [1-bromodecane],332.6 ± 1.7,333.65 ± 1.7,335 ± 1.7,336.08 ± 1.7,336.9 ± 1.7,338.2 ± 1.7,339.29 ± 1.7,340.37 ± 1.7,341.48 ± 1.7,342.74 ± 1.7,343.89 ± 1.7,345.13 ± 1.7,346.34 ± 1.7,347.51 ± 1.7,348.84 ± 1.7,350.1 ± 1.8,351.41 ± 1.8,352.71 ± 1.8,354.02 ± 1.8,355.32 ± 1.8,molar heat capacity at constant pressure (334.15 K): 356.14 ± 1.8 J/K/mol; molar heat capacity at constant pressure (336.65 K): 357.34 ± 1.8 J/K/mol; molar heat capacity at constant pressure (339.15 K): 359.3 ± 1.8 J/K/mol; molar heat capacity at constant pressure (341.65 K): 360.7 ± 1.8 J/K/mol; molar heat capacity at constant pressure (344.15 K): 362.13 ± 1.8 J/K/mol; molar heat capacity at constant pressure (346.65 K): 363.37 ± 1.8 J/K/mol; molar heat capacity at constant pressure (349.15 K): 364.86 ± 1.8 J/K/mol; molar heat capacity at constant pressure (351.65 K): 366.38 ± 1.8 J/K/mol; molar heat capacity at constant pressure (353.15 K): 367.07 ± 1.8 J/K/mol
CCCBr [1-bromopropane],131.2 ± 0.66,131.64 ± 0.66,132.01 ± 0.66,132.46 ± 0.66,132.78 ± 0.66,133.2 ± 0.67,133.64 ± 0.67,134 ± 0.67,134.55 ± 0.67,134.93 ± 0.67,135.35 ± 0.68,135.8 ± 0.68,136.23 ± 0.68,136.68 ± 0.68,137.16 ± 0.69,137.6 ± 0.69,138.11 ± 0.69,138.55 ± 0.69,–,–,molar heat capacity at constant pressure (269.15 K): 129.02 ± 0.65 J/K/mol; molar heat capacity at constant pressure (271.65 K): 129.44 ± 0.65 J/K/mol; molar heat capacity at constant pressure (274.15 K): 129.78 ± 0.65 J/K/mol; molar heat capacity at constant pressure (276.65 K): 130.1 ± 0.65 J/K/mol; molar heat capacity at constant pressure (279.15 K): 130.48 ± 0.65 J/K/mol; molar heat capacity at constant pressure (281.65 K): 130.86 ± 0.65 J/K/mol

# Source: the NIST ThermoML archive (doi:10.1021/je049652j)
